Patent US11253015B2, “Methods and devices for preventing viral transmission” (priority 2020, dated 2022)
Read-outs that look alike come from different tables or passages of the source.

What was measured:
[1] = system: HUVEC cells; assay: EF-induced elongation of endothelial cells (long:short axis ratio); format: cell-based, human; conditions: for long:short axis ratio in EF-treated cells: inhibitor present during EF
Method: HUVEC cells were seeded in a trough formed by two parallel (1 cm apart) strips of glass coverslip (No. 1, length of 22 mm) fixed to the base of the dish with silicone grease. Scratch lines were made perpendicular to the long axis of the chamber with a fine sterile needle and used as reference marks for directed cell migration. Cells were incubated for 24-48 hours (37° C., 5% CO2) before a roof coverslip was applied and sealed with silicone grease. The final dimensions of the chamber, through which current was passed, were 22×10×0.2 mm. Agar-salt bridges not less than 15 cm long were used to connect silver/silver-chloride electrodes in beakers of Steinberg's solution (58 mM NaCl, 0.67 mM KCl, 0.44 mM Ca(NO3)2, 1.3 mM MgSO4, 4.6 mM Trizma base, pH 7.8-8.0), to pools of excess culture medium at either side of the chamber. Field strengths were measured directly at the beginning of, the end of and during each experiment. No fluctuations in field strength were observed. […] (50 μM), the Rho kinase inhibitor Y27632 (50 μM), both Akt and Rho kinase inhibitors (10 μM each) or latrunculin (50 nM) for 1 hour before EF stimulation. The same concentration of drug was present during EF exposure in a CO2 incubator.
A series of images was taken with an image analyser immediately before EF exposure and at 4, 8 and 24 hours of EF exposure. Cell orientation was quantified as an orientation index (Oi), which is defined as Oi=cos 2(α), where a is the angle formed by the long axis of a cell with a line drawn perpendicular to the field lines. A cell with its long axis parallel to the vector of the EF will have an Oi of −1, and a cell with its long axis exactly perpendicular to the EF vector will have an Oi of +1. […] The significance of this two-dimensional orientation distribution against randomness was calculated using Rayleigh's distribution. A long:short axis ratio was calculated for assessment of elongation.
HUVEC cells elongated dramatically in an EF. […] We quantified the elongation of the cells using a long:short axis ratio. […]

[2] = system: HUVEC cells; assay: EF-induced reorientation of endothelial cells (orientation index Oi); format: cell-based, human
Method: A series of images was taken with an image analyser immediately before EF exposure and at 4, 8 and 24 hours of EF exposure. Cell orientation was quantified as an orientation index (Oi), which is defined as Oi=cos 2(α), where a is the angle formed by the long axis of a cell with a line drawn perpendicular to the field lines. A cell with its long axis parallel to the vector of the EF will have an Oi of −1, and a cell with its long axis exactly perpendicular to the EF vector will have an Oi of +1. A randomly oriented population of cells will have an average Oi {defined as [Σn cos 2(α)]÷n} of 0. The significance of this two-dimensional orientation distribution against randomness was calculated using Rayleigh's distribution. A long:short axis ratio was calculated for assessment of elongation.
Cell alignment was quantified using an orientation index Oi=cos 2(α), where α is the angle formed between the long axis of a cell and a line drawn perpendicular to the field lines. In cells oriented perpendicular to the field vector, the Oi is +1, cells parallel to the field vector give an Oi of −1 and random orientation gives an Oi of 0.

[3] = system: HaCaT human keratinocytes; assay: scratch assay, keratinocyte migration (culture inserts, time-lapse microscopy); format: cell-based

In the case of “1-L-6-hydroxymethyl-chiro-inositol 2-[(R)-2-O-methyl-3-O-octadecylcarbonate] [Akt inhibitor]”, the “long:short axis ratio in EF-treated cells” value [1] is reported as “significantly decreased the long:short axis ratio” and the orientation response ([2]; inhibitor 50 μM, 1 hour before and during EF) is reported as “significantly decreased the orientation response”.

For `COc1cc([C@@H]2c3cc4c(cc3[C@H](O)[C@H]3COC(=O)[C@@H]23)OCO4)cc(OC)c1OC` [IGF-1R inhibitor, picropodophyllin], the “increased keratinocyte migration observed with LLEC, with IGF-1R inhibitor” value ([3]; 50 nM picropodophyllin just prior to scratch assay) was “attenuated the increased keratinocyte migration”.

`C/C1=C/C(=O)O[C@@H]2C[C@@H](CC[C@H](C)/C=C\C=C\CC1)O[C@@](O)([C@@H]1CSC(=O)N1)C2` [Latrunculin A] was tested, and the EF-induced elongation response ([1]; latrunculin 50 nM) was “completely abolished” and the orientation response ([2]; latrunculin 50 nM, 1 hour before and during EF) was “suppressed the orientation response significantly”.

In the case of `CC(=O)N[C@@H](CS)C(=O)O` [N-Acetyl Cysteine], the “increased migration observed with LLEC, with N-Acetyl Cysteine” value ([3]; 5 mM, 1 h pretreatment before scratch assay) is reported as “failed to reproduce the increased migration”.

`N#CC(=C(/N)Sc1ccccc1N)/C(C#N)=C(\N)Sc1ccccc1N` [U0126] was tested, and the orientation response [2] was “decreased the orientation to a similar extent”.

For `C[C@@H](N)[C@H]1CC[C@H](C(=O)Nc2ccncc2)CC1` [Y27632], the “long:short axis ratio in EF-treated cells” value [1] was “significantly decreased the long:short axis ratio” and the “Oi (orientation index)” value ([2]; value in the sentence on U0126 (50 μM)) was 0.33±0.03.
